Experimental data published in patent US11377501B2, “Peptide having high affinity for PD-L1 protein and use thereof” (priority 2017, dated 2022).
“Also recorded” adds a separate entry of the source. Where no end group is shown, it is not given here.

Key:
[1] = target: T1, recombinant human PD-L1 protein expressed on CHO cell surface (Homo sapiens, UniProt Q9NZQ7); assay: Binding of FITC-labeled PPLC peptide to PD-L1 expressed on CHO cell surface (flow cytometry, fluorescence confocal); type: cell-based; settings: CHO cells transfected with human PD-L1, FITC-labeled peptide, flow cytometry and confocal
T1 construct: expressed in transfected cells; host or cells: CHO cell line
Procedure: (§1) The recombinant plasmid expressing recombinant human PD-L1 protein was transfected into CHO cell line and incubated for 36 hours. After incubation, anti-PD-L1 monoclonal antibody or PPLC peptide labeled with FITC was added and incubated at 4° C. for 30 minutes. After incubation, flow cytometry was performed (FIG. 3). After transfection of the plasmid, the cells were further cultured for 36 hours, and then the PPLC peptide labeled with FITC was added and incubated at 37° C. for 30 minutes. After incubation, fluorescence confocal detection was performed (FIG. 4).
as §1, with “added,” for “added”, “performed.” for “performed (FIG. 3).”, “performed.” for “performed (FIG. 4).”

[2] = test system: mouse tumor; assay: Effect of PPLC peptide on tumor volume and survival in mouse tumor model; type: in vivo; settings: subcutaneous tumors in female Balb/c mice
Procedure: (§2) The experimental animals were divided into two groups: PBS group and PPLC group. Tumors were injected subcutaneously into 6 weeks old female Balb/c mice. Two weeks later, when the tumor size reached 100 mm^3, PPLC drug treatment was performed. The size of the mouse tumor was measured daily and the change was recorded.
as §2, with “into” for “into 6 weeks old”

[3] = target: PD-1/PD-L1 (Homo sapiens, UniProt Q9NZQ7); assay: Competitive binding ELISA between PPLC peptide and PD-1 to PD-L1 protein; settings: 2 μg/ml coated PD-L1, 1 μg/ml PD-1 protein
Procedure: (§3) A 96-well ELISA plate was coated with 2 μg/ml PD-L1 protein at 4° C. overnight. Different concentrations of PPLC peptide and 1 μg/ml PD-1 protein were mixed and incubated together. After incubation, rabbit anti-human PD-1 monoclonal antibody was added as primary antibody, and then HRP-conjugated goat anti-rabbit IgG monoclonal antibody was added as secondary antibody. After ABTS color development, the OD value at 410 nm was measured using a M5 microplate reader, and GraphPad Prism 6 was used for plotting and analysis.
as §3, with “1 μg/ml of PD-1 protein” for “1 μg/ml PD-1 protein”

T1 sequence (Q9NZQ7 19-290): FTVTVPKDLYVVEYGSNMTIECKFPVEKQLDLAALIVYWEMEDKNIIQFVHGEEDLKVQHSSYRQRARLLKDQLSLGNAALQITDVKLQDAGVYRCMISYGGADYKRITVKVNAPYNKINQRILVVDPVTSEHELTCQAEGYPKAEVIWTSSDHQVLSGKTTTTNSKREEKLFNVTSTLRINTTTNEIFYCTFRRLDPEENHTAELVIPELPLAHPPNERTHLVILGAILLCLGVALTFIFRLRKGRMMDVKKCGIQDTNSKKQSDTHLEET
PD-1/PD-L1, sequence (Q9NZQ7 19-238 limits assumed): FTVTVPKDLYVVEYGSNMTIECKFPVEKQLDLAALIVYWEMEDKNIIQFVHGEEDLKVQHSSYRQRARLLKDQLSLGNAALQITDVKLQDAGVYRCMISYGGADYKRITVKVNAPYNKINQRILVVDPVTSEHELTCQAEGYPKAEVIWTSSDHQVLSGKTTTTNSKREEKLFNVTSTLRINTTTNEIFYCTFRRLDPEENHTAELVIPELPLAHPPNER

VSVSHFQKVWVV [PPLC]
binding to PD-L1 protein expressed on the cell surface [1]: can efficiently bind to the PD-L1 protein expressed on the cell surface; also recorded: has a high affinity for PD-L1 expressed on the surface of CHO cells
growth rate of mouse tumor / tumor size ([2]; treatment from tumor size 100 mm^3, versus PBS group): can significantly reduce the growth rate of mouse tumor; also recorded: significantly smaller than that of the control group
survival time of mice ([2]; versus PBS group): prolong the survival time of mice
blocking of the binding of PD-1/PD-L1 [3]: can effectively block the binding of PD-1/PD-L1
